This is an account of results in patent EP4813463A2, “TYK2 INHIBITORS AND COMPOSITIONS AND METHODS THEREOF” (Lynk Pharmaceuticals Co. Ltd., priority 2023, dated 2024).

For orientation: half-life means the time needed for the level to fall by half in the phase considered. A word on the Vd: it is a proportionality between amount in the body and measured concentration, not a real space. Read a low Vd as confinement near the circulation. One may read the clearance as a measure of how efficiently the substance is removed, as volume per time. Higher therefore signals efficient removal. One may read the Cmax as the highest concentration seen after dosing. In general, bioavailability refers to the share of a dose that reaches the circulation, judged against a reference dose that is usually intravenous.

The subject of series [1] is T cell transfer colitis model. Description: SCID mice colitis by T cell transfer pharmacodynamics study. Type of series: in vivo, C.B17-SCID mice. Here is the method:
This study aimed to obtain the pharmacodynamics of the test article in T cell transfer colitis model after oral administration. For induction of colitis, naive CD4^+ T cells (CD4^+CD44^lowCD62L^high) were adoptively transferred from MHC-compatible Balb/c mice to C.B17-SCID recipients. Balb/c splenocytes were […] selected for CD4^+ T cells using the Mouse Naïve CD4^+ T Cell Isolation Kit (Cat #19765, […]), 1.5×10^6 cells in a volume of 100 µL PBS were transferred to each recipient by i.v. injection on Day 0. C.B17-SCID mice obtained from the Beijing Vital River Laboratory Animal Technology Co., Ltd. Starting on Day 0 and continuing daily through Day 32, mice (n = 8 per group) were dosed with 0 (vehicle control), 45 mg/kg PO BID compound 7A in a vehicle containing 5% DMSO, 65% PEG400, and 30% DDH2O (v/v/v).
Each mouse was scored three times weekly for pathological features, including stool consistency, and body weight loss. Individual scores were combined to generate the DAI, the maximum score was 6. At the termination of the study, the colon was collected for measuring colon index (weight, length, and density), emptied of fecal contents opened longitudinally along the mesenteric border, and formed a Swiss-Roll from the proximal to the distal end, processed to paraffin-embedded blocks to generate 5-µm-thick sections for hematoxylin and eosin (H&E) staining. Slices were evaluated in a blinded manner and histological scores were assessed based on the following parameters: inflammation, epithelial defects, crypt atrophy, dysplasia, and the area affected by dysplasia.

For series [2], the system named is Anti-CD40-induced colitis. Description: SCID mice colitis by anti-CD40-driven pharmacodynamics study. Type of series: in vivo, C.B17-SCID mice. The following applies: for Colon density / Colon length (cm) / Colon weight: Day 5, mean ± SEM, n = 10. On the procedure:
This study aimed to obtain the pharmacodynamics of the test article in colitis model by Anti-CD40-driven after oral administration. C.B17-SCID mice obtained from the Zhejiang Vital River Laboratory Animal Technology Co., Ltd. Starting on Day -1 and continuing daily through Day 4, mice (n = 10 per group) were dosed with 0 (vehicle control), 15, 45, or 100 mg/kg PO BID compound 7A in vehicle containing 5% DMSO, 65% PEG400, and 30% DDH2O (v/v/v). In addition, on Day 0, 30 minutes after administration, colitis was induced with a single intraperitoneal injection of 200 µL of anti-CD40 mAb (BE0016-2, BioXcell) in DPBS, the Sham group mice were intraperitoneally injected with 200 µL of DPBS.
Each mouse was scored daily for pathological features, including stool consistency, presence of blood stool, and body weight loss. Individual scores were combined to generate the Disease Activity Index (DAI) which was calculated daily for each mouse, the maximum score was 12. On Day 5, all animals were euthanized, colon was collected for measuring colon index (weight, length, and density).

Series [3] in a line: Brain pharmacokinetic studies in rats. Type of series: in vivo, Sprague-Dawley rats. The following applies: for half-life / Kp / AUC: rats, iv, 3 mg/kg, solution; for Kp: read-out: Brain AUC/Systemic AUC; for brain exposure in Rats: result in words. Here is the method: Pharmacokinetic profiles of test articles were evaluated in fasted Sprague-Dawley rats. Different kinds of formulations were designed to ensure test articles fully dissolved and wouldn't precipitate in 1:10 SGF or FaSSIF dilution. Typically, Rats were dosed with 3 mg/kg and 5 mg/kg by intravenous injection and oral gavage, respectively. The animal was restrained manually at the designated time points, approximately 150 µL of blood sample was collected via jugular vein for serial bleeding into K2EDTA tubes. The blood samples were maintained in wet ice first and centrifuged to obtain plasma (2000g, 4°C, 5 min) within 30 minutes post sampling. Anesthetizing the rat with the Isoflurane vaporizer to 2%~3% and place its back on the operation table. Spread the animal limbs and pin the limbs on the operation table. Make a cut along the sternum about 4cm long, low enough to expose the sternum's end. Expose the heart and use a 25-gauge needle connected with a 20 mL syringe filled with 20 mL of cold saline to pierce the left ventricle. Maintain the placement of the needle, and slowly push the syringe plunger to wash the brain with saline. The perfusion will be finished within about 2 min and then take the brain out of the body carefully without damaging the tissue. Dry the tissue on filtrate paper, which should be placed on ice, and then weigh the brain tissue and store at -70 °C and analyzed by LC/MS/MS for quantification. PK parameter values, including, but not necessarily limited to, the maximum plasma concentrations (Cmax), and the area under the plasma concentration vs. time curve (AUC) from time zero to 24-hour (AUC0-24h) were determined using WinNonlin program. Table 13. Systemic Pharmacokinetic Parameters in Sprague-Dawley Rats

A short description of series [4]: Pharmacokinetic study in mice. The following applies: mouse, plasma, solution. Type of series: in vivo. On the procedure: (§1) Pharmacokinetic profiles of test articles were evaluated in fasted mouse, Sprague-Dawley rats and Beagle dogs. After dosing, blood samples were collected at each time point. For IV injection group, time points were set at 5, 15, 30 min, and then 1, 2, 4, 8 and 24 hours after dosing. For oral gavage group,#time points were set at 15, 30 min, and then 1, 2, 4, 8, and 24 hours. Blood was collected into appropriately labeled tubes containing K2EDTA as the anticoagulant. Plasma was obtained within 1 hours of blood collection by centrifugation at 8000×g and 4 °C for 6 minutes, and then stored at -20 °C until analyzed by LC/MS/MS for quantification. PK parameter values, including, but not necessarily limited to, the maximum plasma concentrations (Cmax), the time to reach the maximum concentrations (Tmax), and the area under the plasma concentration vs. time curve (AUC) from time zero to 24-hour (AUC0-24h) were determined using WinNonlin program. Table 17. Pharmacokinetic Parameters in Beagle dogs by Intravenous Administration

Series [5] is described as follows: Pharmacokinetic study in dogs. The following applies: dog, plasma; Beagle dogs, intravenous, 2 mg/kg, solution. Type of series: in vivo. On the procedure: as §1
The mark [6] stands for this setting: 45mpk PO BID, Day 0 through Day 32, mean ± SEM, n = 8.
Setting [7] is: Sprague-Dawley, rat, systemic (plasma).
Where [8] appears, read: Sprague-Dawley, rat, systemic (plasma), read-out: AUC.

Take `[2H]C([2H])([2H])NC(=O)c1cnc(NC(=O)C2CC2)cc1Nc1cnn2ccc([C@H](O)C(F)(F)F)c(OC)c12` [Example 7A, (S)-6-(cyclopropanecarboxamido)-4-((4-methoxy-5-(2,2,2-trifluoro-1-hydroxyethyl)pyrazolo[1,5-a]pyridin-3-yl)amino)-N-(methyl-d3)nicotinamide]: in series [1] (setting [6]), the “Colon density” value was 27.66 ± 1.24 mg/cm, the “Colon length (cm)” value was determined as 7.94±0.32 cm, the “Colon weight” value was 218.38 ± 10.13 mg and the “Spleen index” value was determined as 3.08 ± 0.36 mg/g. In addition, in series [1] (FIG. 2. A, result in words), the disease-related weight loss result was “inhibiting”. Further, the DAI scores result in series [1] (FIG. 2. B, result in words) is “inhibiting”. In series [1] (FIG. 3. B-C, result in words), the “absolute value of Th1 and Th17 cells” value was “significantly reduced”. For the same compound, the “percentage value of CD4^+T cells and Th17 cells in whole blood” value in series [1] (FIG. 3. D-E, result in words) was “significantly reduced”. Besides, the “CD4^+T cells in colonic tissue” value in series [1] (FIG. 4. A, result in words) was “significantly reduced”. For the same compound, in series [1] (FIG. 4. B, result in words), the colonic histopathological changes result is “inhibiting”. In addition, in series [1] (orally twice daily, result in words), the colitis symptoms entry is on record as “alleviated colitis symptoms”. In addition, in series [2] (15, 45, or 100 mg/kg PO BID, result in words), the “effect on Anti-CD40-induced colitis” value was “significant protective effect”. In series [2] (15mpk PO BID), the “Colon density” value was 46.99 ± 2.71 mg/cm, the “Colon length (cm)” value is 5.61±0.20 cm and the “Colon weight” value stood at 260.20 ± 10.58 mg. For the same compound, in series [2] (45mpk PO BID), the “Colon density” value turned out to be 37.00 ± 1.36 mg/cm, the “Colon length (cm)” value turned out to be 6.34±0.13 cm and the “Colon weight” value amounted to 234.20 ± 9.04 mg. Further, in series [2] (100mpk PO BID), the “Colon density” value stood at 29.23 ± 0.91 mg/cm, the “Colon length (cm)” value was 7.15±0.15 cm and the “Colon weight” value stood at 208.40 ± 5.53 mg. The body weight loss entry in series [2] (FIG. 1. A, result in words) is reported as “reduction”. Besides, in series [2] (FIG. 1. B, result in words), the DAI score result is listed as “reduction”.

Turning to `COC(=O)c1cnc(NC(=O)C2CC2)cc1Nc1nn(C)c2ccc([C@H](OC)C(F)(F)F)c(OC)c12` [Example 45B, Methyl (S)-6-(cyclopropanecarboxamido)-4-((4-methoxy-1-methyl-5-(2,2,2-trifluoro-1-methoxyethyl)-1H-indazol-3-yl)amino)nicotinate], the half-life was 2.23 h in series [3] (Sprague-Dawley, rat, brain) and 2.28 h in series [3] (setting [7]). Further, in series [3] (Sprague-Dawley, rat, brain), the Kp came out at 0.96. Besides, the AUC in series [3] (setting [8]) came to 1280 ng·h/mL; in series [3] (brain) it was 1235 ng·h/g. Further, in series [3], the “brain exposure in Rats” value was “good brain exposure”.

As for `COC(=O)c1cnc(NC(=O)C2CC2)cc1Nc1nn(C)c2ccc([C@H](O)C(F)(F)F)c(OC)c12` [Example 48A, Methyl (S)-6-(cyclopropanecarboxamido)-4-((4-methoxy-1-methyl-5-(2,2,2-trifluoro-1-hydroxyethyl)-1H-indazol-3-yl)amino)nicotinate], the half-life in series [3] (Sprague-Dawley, rat, brain) is 2.04 h; in series [3] (setting [7]) it was 1.62 h. The Kp in series [3] (Sprague-Dawley, rat, brain) was determined as 0.19. For the same compound, the AUC in series [3] (setting [8]) turned out to be 1530 ng·h/mL; in series [3] (brain), 288 ng·h/g. In addition, the “brain exposure in Rats” value in series [3] is given as “good brain exposure”.

With `[2H]C([2H])([2H])NC(=O)c1cnc(NC(=O)C2CC2)cc1Nc1nn(C)c2ccc([C@H](OC([2H])([2H])[2H])C(F)(F)F)c(OC)c12` [Example 55A, (S)-6-(cyclopropanecarboxamido)-4-((4-methoxy-1-methyl-5-(2,2,2-trifluoro-1-(methoxy-d3)ethyl)-1H-indazol-3-yl)amino)-N-(methyl-d3)nicotinamide], in series [4] (intravenous, 3 mg/kg), the AUC was determined as 7600 ng·h/mL, the Vd was 0.819 L/kg, the clearance was found to be 6.57 mL/min/kg and the half-life was 2.57 h. In series [4] (oral, 5 mg/kg), this compound had an AUC of 7490 ng·h/mL, a Cmax of 2300 ng/mL, a bioavailability of 59.2% and a half-life of 2.38 h. In series [5], the AUC came out at 9980 ng·h/mL, the Vd was determined as 0.678 L/kg, the clearance was 3.52 mL/min/kg and the half-life is 3.64 h.
